Test results from patent US20230042881A1, “MODULATORS OF INTEGRATED STRESS RESPONSE PATHWAY” (Praxis Biotech LLC, priority 2021, published 2023).

Tests used:
[1] = tested on: ATF4; experiment: ATF4 expression inhibition assay (ATF4 5′UTR luciferase reporter, thapsigargin-stressed); type: cell-based; conditions: Homo sapiens, HEK-293T; HEK293T cells carrying ATF4 luciferase reporter, 100 nM thapsigargin (Tg), 3 hours at 37° C.; read-out: ATF4 inhibition
Experimental: The ATF4 reporter was prepared by fusing the human full length 5′UTR of ATF4 (NCBI Accession No. BC022088.2) upstream of the firefly luciferase coding sequence lacking the initiator methionine. The fused sequence was cloned into pLenti-EF1a-C-Myc-DDK-IRES-Puro cloning vector (Origen #PS100085) using standard methods.
HEK293T cells carrying the ATF4 luciferase reporter were plated on 96-well plates (Nunc) at 10,000 cells per well. Cells were treated two days after seeding with 100 nM thapsigargin (Tg) (Sigma-Aldrich #T9033) in the presence of different concentrations of selected compounds ranging from 0.1 nM to […]. Cells without treatment or cells treated with Tg alone were used as controls. Assay plates containing cells were incubated for 3 hours at 37° C.
Luciferase reactions were performed using Luciferase Assay System (Promega #E1501) as specified by the manufacturer. Luminescence was read with an integration time of 1 s and a gain of 110 using a Cytation-5 multi-mode microplate reader (BioTek).

[2] = tested on: Chinese hamster ovary (CHO) cells; experiment: Protein synthesis assay (puromycin incorporation, Western blot); type: cell-based; conditions: Cricetulus griseus; unstressed CHO cells (without Tg), 2 hours, 1 μM test compound; media alone = 100%; read-out: % Protein synthesis relative to untreated (1 μM test compound)
Experimental: Chinese hamster ovary (CHO) cells were maintained at 37° C. and 5% CO2 in Dulbecco's Modified Eagle's Media (DMEM) supplemented with 10% fetal bovine serum, 2 mM L-glutamine, 100 U/ml penicillin, and 100 μg/ml streptomycin. After reaching 80% of confluence, cells were detached and seeded on 6 well plates in complete media, allowed to recover overnight and treated for 2 hours with 1 μM of the test compound (to assess protein synthesis levels in unstressed condition), or for 2 hours with 300 nM Tg in the presence of 1 μM of the test compound (to assess the recovery of protein synthesis in a stressed condition). Cells with Tg alone were used as controls.
After the 2 hours treatments, media were replaced by adding 10 μg/ml puromycin (Sigma Aldrich #P8833) in complete media for 30 min. Media were removed and cells were lysed with SDS-PAGE lysis buffer. Lysates were transferred to 1.5 ml tubes and sonicated for 3 min and total protein amount were quantified using BCA Protein Assay Kit (Pierce). Equal amount of protein (30 μg) was loaded on SDS-PAGE gels.
A HRP-conjugated secondary antibody (Rockland) was employed to detect immune-reactive bands using enhanced chemiluminescence (ECL Western Blotting Substrate, Pierce). Quantification of protein bands was done by densitometry using ImageJ software.
The percentage levels were normalized to the media alone condition, which correspond to 100% protein synthesis. […]

SMILES	IC50 [1]	activity at 1 µM [2]
O=C(COc1ccc(Cl)c(F)c1)NC1CCN(C(=O)Nc2ccc3cc(Cl)ccc3n2)CC1 [Compound 15, 4-(2-(4-chloro-3-fluorophenoxy)acetamido)-N-(6-chloroquinolin-2-yl)piperidine-1-carboxamide]	10 to 100 nM	177%
O=C(COc1ccc(Cl)cc1)NN1CCC(C(=O)Nc2ccc3cc(Cl)ccc3n2)CC1 [Compound 18, 1-(2-(4-chlorophenoxy)acetamido)-N-(6-chloroquinolin-2-yl)piperidine-4-carboxamide]	< 10 nM	75.6%
O=C(COc1ccc(Cl)c(F)c1)N[C@H]1CC[C@H](C(=O)NCc2ccc3cc(Cl)ccc3n2)CC1 [Compound 22, trans-4-(2-(4-chloro-3-fluorophenoxy)acetamido)-N-((6-chloroquinolin-2-yl)methyl)cyclohexanecarboxamide]	10 to 100 nM	100%
O=C(CO[C@H]1C[C@@H](OC(F)(F)F)C1)N[C@H]1CC[C@H](C(=O)Nc2ccc3cc(Cl)ccc3n2)CC1 [Compound 24, trans-N-(6-chloroquinolin-2-yl)-4-(2-(cis-3-(trifluoromethoxy)cyclobutoxy)acetamido)cyclohexanecarboxamide]	< 10 nM	99.3%
O=C(CO[C@H]1C[C@@H](OC(F)(F)F)C1)NN1CCC(C(=O)Nc2ccc3cc(Cl)ccc3n2)CC1 [Compound 25, N-(6-chloroquinolin-2-yl)-1-(2-((1s, 3s)-3-(trifluoromethoxy)cyclobutoxy)acetamido)piperidine-4-carboxamide]	< 10 nM	96.1%
O=C(COc1ccc(C(F)(F)F)cc1)N[C@H]1CC[C@H](C(=O)Nc2ccc3cc(Cl)ccc3n2)CC1 [Compound 35, trans-N-(6-chloroquinolin-2-yl)-4-(2-(4-(trifluoromethyl)phenoxy)acetamido)cyclohexanecarboxamide]	< 10 nM	82.9%
O=C(COc1ccc(OC(F)(F)F)cc1)N[C@H]1CC[C@H](C(=O)Nc2ccc3cc(Cl)ccc3n2)CC1 [Compound 36, trans-N-(6-chloroquinolin-2-yl)-4-(2-(4-(trifluoromethoxy)phenoxy)acetamido)cyclohexanecarboxamide]	< 10 nM	160%
O=C(COc1ccc(Cl)c(F)c1)N[C@H]1CC[C@H](C(=O)NCc2cc3cc(Cl)ccc3o2)CC1 [Compound 39, trans-4-(2-(4-chloro-3-fluorophenoxy)acetamido)-N-((5-chlorobenzofuran-2-yl)methyl)cyclohexanecarboxamide]	10 to 100 nM	170%
O=C(COc1ccc(Cl)c(F)c1)NN1CCC(C(=O)NCc2cc3cc(Cl)ccc3o2)CC1 [Compound 40, 1-(2-(4-chloro-3-fluorophenoxy)acetamido)-N-((5-chlorobenzofuran-2-yl)methyl)piperidine-4-carboxamide]	< 10 nM	121%
O=C(NN1CCC(C(=O)NCc2cc3cc(Cl)ccc3o2)CC1)c1cc2cc(Cl)ccc2o1 [Compound 48, 1-(5-chlorobenzofuran-2-carboxamido)-N-((5-chlorobenzofuran-2-yl)methyl)piperidine-4-carboxamide]	< 10 nM	109%
O=C(COc1ccc(Cl)c(F)c1)NN1CCC(C(=O)NCC2CNc3cc(Cl)ccc3O2)CC1 (centres unmarked) [Compound 68, N-((6-chloro-3,4-dihydro-2H-benzo[b][1,4]oxazin-2-yl)methyl)-1-(2-(4-chloro-3-fluorophenoxy)acetamido)piperidine-4-carboxamide]	< 10 nM	98.3%
O=C(N[C@H]1CC[C@H](C(=O)NCC2CNc3cc(Cl)ccc3O2)CC1)c1ccc2cc(Cl)ccc2n1 (stereo partly drawn) [Compound 71, trans-6-chloro-N-(4-(((6-chloro-3,4-dihydro-2H-benzo[b][1,4]oxazin-2-yl)methyl)carbamoyl)cyclohexyl)quinoline-2-carboxamide]	< 10 nM	174%
O=C(N[C@H]1CC[C@H](C(=O)NCC2CNc3cc(Cl)ccc3O2)CC1)c1cc2cc(Cl)ccc2o1 (stereo partly drawn) [Compound 75, 5-chloro-N-(trans-4-(((6-chloro-3,4-dihydro-2H-benzo[b][1,4]oxazin-2-yl)methyl)carbamoyl)cyclohexyl)benzofuran-2-carboxamide]	< 10 nM	114%

Further lines, with some results ahead:

IC50 [1]	SMILES	activity at 1 µM [2]
< 10 nM	O=C(COc1ccc(Cl)c(F)c1)N[C@H]1CC[C@H](C(=O)Nc2nc3cc(Cl)ccc3s2)CC1 [Compound 14, trans-4-(2-(4-chloro-3-fluorophenoxy)acetamido)-N-(5-chlorobenzo[d]thiazol-2-yl)cyclohexane-1-carboxamide]	105%
< 10 nM	O=C(COc1ccc(Cl)c(F)c1)NN1CCC(C(=O)Nc2ccc3cc(Cl)ccc3n2)CC1 [Compound 16, 1-(2-(4-chloro-3-fluorophenoxy)acetamido)-N-(6-chloroquinolin-2-yl)piperidine-4-carboxamide]	133%
10 to 100 nM	O=C(Nc1ccc2cc(Cl)ccc2n1)[C@H]1CC[C@H](C(=O)Nc2ccc3cc(Cl)ccc3n2)CC1 [Compound 17, trans-N^1,N^4-bis(6-chloroquinolin-2-yl)cyclohexane-1,4-dicarboxamide]	110%
< 10 nM	O=C(NN1CCC(C(=O)Nc2ccc3cc(Cl)ccc3n2)CC1)c1ccc2cc(Cl)ccc2n1 [Compound 19, 6-chloro-N-(4-((6-chloroquinolin-2-yl)carbamoyl)piperidin-1-yl)quinoline-2-carboxamide]	122%
10 to 100 nM	O=C(Nc1ccc2cc(Cl)ccc2n1)[C@H]1CC[C@H](C(=O)N[C@H]2C[C@@H](OC(F)(F)F)C2)CC1 [Compound 31, trans-N1-(6-chloroquinolin-2-yl)-N4-(cis-3-(trifluoromethoxy)cyclobutyl)cyclohexane-1,4-dicarboxamide]	88.3%
< 10 nM	O=C(N[C@H]1CC[C@H](C(=O)NCc2cc3cc(Cl)ccc3o2)CC1)c1ccc2cc(Cl)ccc2n1 [Compound 43, 6-chloro-N-(trans-4-(((5-chlorobenzofuran-2-yl)methyl)carbamoyl)cyclohexyl)quinoline-2-carboxamide]	85.2%
< 10 nM	O=C(NN1CCC(C(=O)NCc2cc3cc(Cl)ccc3o2)CC1)c1ccc2cc(Cl)ccc2n1 [Compound 44, 6-chloro-N-(4-(((5-chlorobenzofuran-2-yl)methyl)carbamoyl)piperidin-1-yl)quinoline-2-carboxamide]	96.8%
< 10 nM	O=C(N[C@H]1CC[C@H](C(=O)NCc2cc3cc(Cl)ccc3o2)CC1)c1cc2cc(Cl)ccc2o1 [Compound 47, 5-chloro-N-(trans-4-(((5-chlorobenzofuran-2-yl)methyl)carbamoyl)cyclohexyl)benzofuran-2-carboxamide]	103%
10 to 100 nM	O=C(N[C@H]1CC[C@H](C(=O)NCc2cc3cc(Cl)ccc3o2)CC1)C1CNc2cc(Cl)ccc2O1 (stereo partly drawn) [Compound 49, 6-chloro-N-(trans-4-(((5-chlorobenzofuran-2-yl)methyl)carbamoyl)cyclohexyl)-3,4-dihydro-2H-benzo[b][1,4]oxazine-2-carboxamide]	122%
10 to 100 nM	O=C(NCc1cc2cc(Cl)ccc2o1)C1CCN(NC(=O)C2CNc3cc(Cl)ccc3O2)CC1 (centres unmarked) [Compound 50, 6-chloro-N-(4-(((5-chlorobenzofuran-2-yl)methyl)carbamoyl)piperidin-1-yl)-3,4-dihydro-2H-benzo[b][1,4]oxazine-2-carboxamide]	85.1%
< 10 nM	O=C(COc1ccc(Cl)c(F)c1)N[C@H]1CC[C@H](C(=O)NCC2CNc3cc(Cl)ccc3O2)CC1 (stereo partly drawn) [Compound 67, trans-N-((6-chloro-3,4-dihydro-2H-benzo[b][1,4]oxazin-2-yl)methyl)-4-(2-(4-chloro-3-fluorophenoxy)acetamido)cyclohexanecarboxamide]	109%
< 10 nM	O=C(NN1CCC(C(=O)NCC2CNc3cc(Cl)ccc3O2)CC1)c1ccc2cc(Cl)ccc2n1 (centres unmarked) [Compound 72, 6-chloro-N-(4-(((6-chloro-3,4-dihydro-2H-benzo[b][1,4]oxazin-2-yl)methyl)carbamoyl)piperidin-1-yl)quinoline-2-carboxamide]	92.2%
